{"source": "patent US20210113522A1", "about": "“COUMARIN DERIVATIVE AS ANTI-ASTHMATIC AGENT, PHARMACEUTICAL COMPOSITION THEREOF, ITS PREPARATION AND USE” (I-NOVA MEDICINSKA ISTRAZIVANJA D.O.O., priority 2017, published 2021)", "key": {"[1]": {"test_system": "OVA-induced airway inflammation", "assay": "OVA model of lung eosinophilia: differential cell count of bronchoalveolar lavage (BAL) cells", "type": "in vivo, Balb/c mice", "conditions": "vs PBS-treated OVA mice; 1 2 mg/kg preventively or therapeutically, beclomethasone 1 mg/kg, via the airway", "description": "The study was performed on female 8-week old Balb/c mice. The animals were kept under specific-pathogen-free (SPF) conditions with temperature control and HEPA system for breeding of laboratory animals. Experiments were performed during the light phase of the cycle. 40 mice (n=10/group) were separated into 4 groups:\nGroup 1: OVA only Group 2: OVA+BECLOMETHASONE (1 mg/kg) Group 3: OVA+Compound 1 (preventively; 2 mg/kg) Group 4: OVA+Compound 1 (therapeutically; 2 mg/kg)\nEach group of mice was sensitized on days 0 and 14 with 20 μg/mouse of OVA adsorbed on 2 mg alum. On days 20, 21 and 22 the animals were stimulated with 100 μg/mouse OVA intranasally in a final volume of 50 μL/mouse.\nThe first group (the positive control) was injected with 0.1 M phosphate-buffered saline (PBS) only.\nThe second and third groups were treated preventively with compound 1 (2 mg/kg) or beclomethasone (1 mg/kg) on days 18-22 via the airway.\nThe fourth group was treated therapeutically with compound 1 (2 mg/kg) on days 23-25 via the airway.\nWe examined the effect of compound 1 treatment in the cell response on OVA-induced airway inflammation. OVA (100 μg/50 μL of PBS) was introduced intranasally (i.n.) 6 days after the second intraperitoneal (i.p.) sensitization with OVA. The treatment with compound 1 (preventively and therapeutically), beclomethasone or PBS only was performed according the treatment schedule; see FIG. 2.\nTwo days after the last i.n. challenge, BAL cells were collected, and differential cell counts were performed to identify the number of various infiltrating inflammatory cells, see FIGS. 3A, 3B.\nFemale 8-week old Balb/c mice were obtained from Harlan Farm (Blackthorn, UK). The animals were kept under specific-pathogen-free (SPF) conditions with temperature control and HEPA system for breeding of laboratory animals. The manipulations were approved by the Animal Care Commission at the Institute of Microbiology in accordance with the International regulations (EU Directive 2010/63/EU).\nExperiments were performed during the light phase of the cycle. The animals were allowed to adapt to the laboratory for at least 1 h before testing and were used only once. 40 mice (n=10/group) were separated into 4 groups:\nGroup 1: OVA only Group 2: OVA+beclomethasone (1 mg/kg) Group 3: OVA+compound 1 (preventively; 2 mg/kg) Group 4: OVA+compound 1 (therapeutically; 2 mg/kg)\nThe experimental procedure was carried out as described in literature reference 22. The procedure is as follows: • (1) using scissors, a small incision in the neck skin on the trachea was made and the skin upwards was opened to expose the salivary glands; the trachea was exposed; • (2) a small semi-excision of the trachea was made to allow a 21-G lavage tube to pass into the trachea; • (3) collection of the lavage fluid—0.5 mL of sterile PBS was injected into the lung. The saline from the first lavage was aspirate; the procedure was repeated 5 times; • (4) all lavages were pooled and were centrifuge for 5 min. at 300×g/4° C. to pellet the cells; the supernatant was discarded; • (5) the pellet was re-suspended in 1.5 mL ice cold PBS and centrifuge for 5 min. at 300×g/4° C.; the supernatant was discarded; • (6) the pellet was re-suspended in 1.0 mL ice cold PBS and the cells were counted; • (7) 50 000 cells were placed on the slide for cytospin; • (8) the cytrospin was performed for 10 min at 700 rpm; and • (9) the slides were air-dried and proceeded to cell staining.\n• (1) fix in Solution A (fixative); • (2) dip 5 times in Solution C (red); • (3) dip 5 times in Solution B (blue); • (4) rinse the slides in distilled water; • (5) air-drying of the slides; • (6) mounted the cover slides; and then • (7) 400 cells were counted under light microscopy. Histology Staining was then Performed as Follows: The lungs from all animals were fixed in 10% formalin (pH 7.4). […]"}, "[2]": {"test_system": "croton oil-induced ear edema", "assay": "Croton oil-induced ear edema in mice", "type": "in vivo, Balb/c mice", "conditions": "dexamethasone 1 mg/kg, 1 2 mg/kg", "source_text": "The presents study aims to detect the inflammatory/anti-inflammatory potential effects of compound 1 in a model of acute skin inflammation induced by local application of phlogistic agent croton oil in Balb/c mice. The technique for croton oil-induced ear edema in mice, originally described by Tubaro et al., was followed, with modifications; see literature references 16 and 17: • 16) A. Tubaro, P. Dri, G. Delbello, C. Zilli, R. Della Loggia: The croton oil ear test revisited, Agents Actions 17 (1986) 347-349. • 17) G. Coruzzi, C. Pozzoli, M. Adami, D. Grandi, N. Guido, R. Smits, I. de Esch and R. Leurs: Strain-dependent effects of the histamine H4 receptor antagonist JNJ7777120 in a murine model of acute skin inflammation, Experimental Dermatology 21 (2011) 32-37.\nMice (total 40) were separated into 4 groups (n=10). Each group was treated under different regimen:\nCutaneous inflammation was induced in conscious mice by topical application of croton oil (5% in acetone).\nSix hours after croton oil application, mice were euthanized by light ether anaesthesia, followed by cervical dislocation; both left (acetone) and right (croton oil in acetone) ears were removed, by cutting horizontally across the indentation at the base of the ear. For each mouse, the extent of the oedema was expressed as the difference in weight (Δ [mg]) between right (inflamed) and left (uninflamed) ear. The percentage increase in the oedema of the treated ear was calculated by the following formula: […]\nThe presents study aims to detect the inflammatory/anti-inflammatory potential effects of compound 1 in a model of acute skin inflammation induced by local application of phlogistic agent croton oil in Balb/c mice. The technique for croton oil-induced ear edema in mice, originally described by Tubaro et al., was followed, with modifications; see literature references 16 and 17.\nIn preliminary experiments, the effect of subcutaneous (s.c.) administration of saline, 100% DMSO or 20% 2-hydroxypropyl-β-cyclodextrin was investigated to check the vehicle effects on ear inflammation.\nThe statistical significance between the groups was assessed by one-way analysis of variance (ANOVA) followed by a post hoc Tukey test. The accepted level of significance for the test was P<0.05. All tests were carried out using GraphPad Software (San Diego, Calif., USA)."}}, "data": [{"smiles": "O=c1oc2cc(O)cc(O)c2c(O)c1-c1coc2c1c(=O)oc1cc(O)cc(O)c12", "note": "[Compound 1, 7,9-dihydroxy-3-(4,5,7-trihydroxy-2-oxo-2H-chromene-3-yl)-4H-furo[3,2-c]chromen-4-one]", "values": [{"measurement": "Eosinophil infiltration into the lungs (BAL)", "setting": "[1]", "result": "strongly suppressed"}, {"measurement": "Lymphocyte infiltration (BAL)", "setting": "[1]", "result": "stimulate"}, {"measurement": "Macrophages infiltration (BAL)", "setting": "[1]", "result": "stimulate"}, {"measurement": "Neutrophil infiltration (BAL)", "setting": "[1]", "result": "stimulate"}, {"measurement": "Ear edema Δm (right minus left ear)", "setting": "[2]; 6 h after croton oil", "result": 0.0321, "unit": "g"}, {"measurement": "Percentage of increasing the ear edema", "setting": "[2]; 6 h after croton oil", "result": 92.98, "unit": "%"}, {"measurement": "Maximal inhibition of croton oil-induced ear oedema", "setting": "[2]; Balb/c mice, 6 h", "result": "~40", "unit": "%"}, {"measurement": "Left ear m", "setting": "[2]; left ear: 80% 2HPβCD + 20% DMSO (uninflamed), 6 h", "result": 0.0344, "unit": "g"}, {"measurement": "Right ear m", "setting": "[2]; right ear: substance + croton oil after 30 min, 6 h", "result": 0.0665, "unit": "g"}]}, {"smiles": "C[C@H]1C[C@H]2[C@@H]3CCC4=CC(=O)C=C[C@]4(C)[C@@]3(Cl)[C@@H](O)C[C@]2(C)[C@@]1(O)C(=O)CO", "note": "[beclomethasone, reference compound]", "values": [{"measurement": "Eosinophil infiltration into the lungs (BAL)", "setting": "[1]", "result": "suppressed"}, {"measurement": "Lymphocyte infiltration (BAL)", "setting": "[1]", "result": "induced moderate"}, {"measurement": "Macrophages infiltration (BAL)", "setting": "[1]", "result": "induced moderate"}, {"measurement": "Neutrophil infiltration (BAL)", "setting": "[1]", "result": "suppressed"}]}]}
